Laboratory results published in patent publication US20230310418A1, “COMPOSITIONS AND METHODS FOR TREATING CANCER OR PREVENTING, INHIBITING OR REDUCING RISK OF METASTASIS OF A CANCER” (Lixte Biotechnology, Inc., priority 2022, published 2023).
“Also recorded” adds a separate entry of the source. Like-named read-outs stand apart in the source and are kept apart here.

Legend:
[1] = test system: mitogenic signaling pathways and stress response pathways; assay: Time-course Western blots; assay type: cell-based; settings: DiFi, HT-29 and SW-480 cells; vinculin control (FIG. 1C-1E)
Experimental: After the indicated culture period and drug treatment, cells were washed with cold PBS, then lysed with RIPA buffer (25 mM Tris-HCl, pH 7.6, 150 mM NaCl, 1% NP-40, 1% sodium deoxycholate, 0.1% SDS) containing Complete Protease Inhibitor cocktail and phosphatase inhibitor cocktails II and III. Samples were then centrifuged for 10 min at 15,000 x g at 4° C. and supernatant was collected. Protein concentration of the samples was normalized after performing a Bicinchoninic Acid (BCA) assay. Protein samples (denatured with DTT followed by 5 min heating at 95° C.) were then loaded in a 4-12% polyacrylamide gel. Gels were run (SDS-PAGE) for approximately 45 min at 175 volts. Proteins were transferred from the gel to a polyvinylidene fluoride (PVDF) membrane at 330 mA for 90 min. After the transfer, membranes were incubated in blocking solution (5% bovine serum albumin (BSA) in PBS with 0.1% Tween-20 (PBS-T)). Subsequently, membranes were probed with primary antibody in blocking solution (1:1000) overnight at 4° C. Membranes were then washed 3 times for 10 min with PBS-T, followed by 1 h incubation at room temperature with the secondary antibody (HRP conjugated, 1:10,000) in blocking solution. […]
(§1) Then the cell viability was measured using resazurin.

[2] = test system: colorectal cancer cell lines; assay: cells
Experimental: Drug-response assays were performed in triplicate, using black-walled 384-well plates. Cells were plated with a 20% density (approximately) and incubated for approximately 24 hours to allow attachment to the plate. […] 10 µM phenylarsine oxide was used as positive control (0% cell viability) and DMSO was used as negative control (100% cell viability). 3-5 days later, culture medium was removed and resazurin was added to the plates. After 1-4 hours incubation (depending on the cell line), fluorescence (560Ex/590Em) was recorded using the EnVision (Perkin Elmer).
The effect of increasing doses of LB-100 to the Table 1 cell lines, both in short-term cell viability assays (FIG. 1A) and long-term cell proliferation assays (FIG. 1B), was analyzed. For the short-term study, cells were cultured with increasing concentrations of LB-100 for 5 days. Then the cell viability was measured using resazurin.
Adavosertib was used as the WEE1 kinase inhibitor to investigate the effect of the combination with LB-100 in the panel of CRC cells. […] Toxicity of the combination in long-term viability assays was assessed. The cells were cultured for at least ten days and the drugs were refreshed every other day. The toxicity of the single drugs in this experimental setup was assessed. […] Cells were then treated at the indicated conditions and confluence over time was measured by IncuCyte®, FIG. 3D).

[3] = test system: colorectal cancer cell lines; assay type: cell-based; settings: for toxicity when combined with LB-100, long-term cell proliferation: SW-480 cells, multiple concentrations, 10-14 days (FIG. 2F)
Experimental: Finally, plates were scanned and stored.
as §1

[4] = test system: pancreatic ductal adenocarcinoma (PDAC) cell lines; assay: Short-term cell viability dose-response assay (resazurin); assay type: cell-based; settings: 120 h, read-out: IC50s from dose-response curves
Description: (§2) The efficacy of the LB-100/adavosertib combination in the CRC cell lines encouraged further evaluation in other tumor types lacking effective treatment options. Pancreatic ductal adenocarcinomas (PDACs) are refractory to conventional therapies and the 5-year survival rates remain one of the lowest among all cancers. Similarly, despite a much lower overall incidence, cholangiocarcinomas (CCAs) share with PDACs the frequent lack of response to conventional therapies and the dismal prognosis. A panel of four PDAC cell lines and a similar one with CCA cells were assembled to assess the efficacy of LB-100 and adavosertib in these cancer types. […] To investigate the effects of the combination in the PDAC and CCA cancer cell lines systematically, the same experimental workflow used for the CRC panel was employed. First, the long-term toxicity of LB-100 and adavosertib was addressed in the PDAC and CAA cell lines (FIG. 5D and FIG. 8C). […] As observed for DiFi and RKO, the doses of adavosertib used in the synergy assays are already toxic to AspC-1, EGI, and HuCC-T1 cells (FIG. 5C, FIG. 8A, and FIG. 8B).

[5] = test system: cholangiocarcinoma (CCA) cell lines; assay: as above; assay type: cell-based; settings: 120 h, read-out: IC50s from dose-response curves
Description: as §2

HT-29 cells = assay: Stress-focused drug screen of 164 compounds with or without LB-100; assay type: cell-based; settings: 2.5 µM LB-100 (sub-lethal); cell viability after three days (FIG. 2C)
Description: These compounds were investigated in 15 different concentrations using a literature-based concentration range in order to obtain dose-response curves for each of these drugs.

SW-480 cells = assay: as above; assay type: cell-based; settings: 2.5 µM LB-100 (sub-lethal); cell viability after three days; 15 concentrations (FIG. 2B)
Description: (§3) To identify stress-targeted drugs that can be combined with LB-100 to kill cancer cells, a library of 164 compounds was built targeting the different stress responses associated with a malignant phenotype (i.e., proteotoxic stress, oxidative stress, DNA damage stress, mitotic stress, metabolic stress, and apoptosis evasion). These compounds were investigated in 15 different concentrations using a literature-based concentration range in order to obtain dose-response curves for each of these drugs.

[6] = test system: RBE cholangiocarcinoma cells; assay: as above; assay type: cell-based; settings: stress-focused screen with LB-100 vs control (FIG. 5A)
Description: as §3

For `CN1CCN(C(=O)[C@@H]2[C@H](C(=O)O)[C@H]3CC[C@@H]2O3)CC1` (racemic) [LB-100], the “activation of mitogenic signaling and stress response pathways” value [1] was “activates mitogenic signaling pathways and engages stress response pathways”, the “cytotoxicity, short-term cell viability” value [2] was “moderate toxicity in the lower micro molar range” and the “cytotoxicity, long-term cell proliferation” value [3] was “moderate toxicity in the lower micro molar range”. The IC50 [4] was at least 3200 nM and the IC50 [5] was at least 4700 nM.
`N#Cc1cnc(Nc2cc(NC[C@H]3CNCCO3)c(C(F)(F)F)cn2)cn1` [CCT-245737] was tested, and the “toxicity in the presence of LB-100 vs control (normalized AUC)” value (from here on “toxicity … vs control (normalized AUC)”) (HT-29 cells) was “increased toxicity”.
With `CN(C)CC#Cc1ccc(OCCCc2sc(N3CCc4cccc(C(=O)Nc5nc6ccccc6s5)c4C3)nc2C(=O)O)c(F)c1` [Compound A-1155463] the “toxicity … vs control (normalized AUC)” value (SW-480 cells) was “increased in the presence of LB-100” and the “toxicity when combined with LB-100, long-term cell proliferation” value (shortened to “toxicity when combined”) [3] was “increased toxicity”.
`N[C@@H]1CCCN(c2c(Br)cnc3[nH]cc(NC(=O)C4CC4)c23)C1` [GDC-0575] was tested, and the “toxicity … vs control (normalized AUC)” value (HT-29 cells) was “LB-100 increased the toxicity”, the “toxicity … vs control (normalized AUC)” value (SW-480 cells) was “among the bottom 5% normalized AUCs” and the “increased drug efficacy in the presence of LB-100 (normalized AUC)” value (“increased drug efficacy … (normalized AUC)” below) [6] was “among the top 5% in increased drug efficacy”.
With `CCN(CC)CCOc1ccc(Nc2ncc3cc(-c4c(Cl)cccc4Cl)c(=O)n(C)c3n2)cc1` [PD0166285] the “toxicity … vs control (normalized AUC)” value (SW-480 cells) was “among the bottom 5% normalized AUCs”.
For `Cn1cc(-c2cnn3c(N)c(Br)c([C@@H]4CCCNC4)nc23)cn1` [SCH-900776], the “toxicity … vs control (normalized AUC)” value (HT-29 cells) was “increased toxicity” and the “increased drug efficacy … (normalized AUC)” value [6] was “among the top 5% in increased drug efficacy”.
In the case of `C=CCn1c(=O)c2cnc(Nc3ccc(N4CCN(C)CC4)cc3)nc2n1-c1cccc(C(C)(C)O)n1` [adavosertib], the “toxicity … vs control (normalized AUC)” value (HT-29 cells) is reported as “LB-100 increased the toxicity”, the “toxicity … vs control (normalized AUC)” value (SW-480 cells) is reported as “among the bottom 5% normalized AUCs” and the “increased drug efficacy … (normalized AUC)” value [6] is reported as “among the top 5% in increased drug efficacy”. For the same compound, the IC50 ([2]; 120 h, read-out: IC50s from dose-response curves) was 180 to 1000 nM, the “tolerance to single drug, long-term viability” value ([3]; DLD1, HCT-116 and SW-480 cells (FIG. 3C)) was “largely tolerant to up to 500 nM” and the “toxicity when combined” value [3] was “increased toxicity”. It also gave an IC50 ([4]; range across four PDAC cell lines, 5 days, resazurin (FIG. 8A, 8B)) of 300 to 1700 nM and an IC50 ([5]; range across CCA cell lines, 5 days, resazurin (FIG. 5C)) of 100 to 370 nM.
For `CNCc1ccc(-c2cc(-c3nc(-c4ccc(S(=O)(=O)C(C)C)cc4)cnc3N)on2)cc1` [berzosertib], the “increased drug efficacy … (normalized AUC)” value [6] was “among the top 5% in increased drug efficacy”.
With `CC1(C)CCC(c2ccc(Cl)cc2)=C(CN2CCN(c3ccc(C(=O)NS(=O)(=O)c4ccc(N[C@H](CCN5CCOCC5)CSc5ccccc5)c(S(=O)(=O)C(F)(F)F)c4)cc3)CC2)C1` [navitoclax] the “toxicity … vs control (normalized AUC)” value (SW-480 cells) was “increased in the presence of LB-100”.
In the case of `COc1cccc(OCCCN)c1-c1cc(Nc2cnc(C#N)cn2)n[nH]1` [prexasertib], the “toxicity … vs control (normalized AUC)” value (SW-480 cells) is reported as “among the bottom 5% normalized AUCs; also recorded: increased toxicity”, the “increased drug efficacy … (normalized AUC)” value [6] is reported as “among the top 5% in increased drug efficacy” and the “toxicity when combined” value [3] is reported as “increased toxicity”.
In the case of `Cc1cnc(NC(=O)Nc2cc(Br)c(C)cc2OC[C@@H]2CNCCO2)cn1` [rabusertib], the “toxicity … vs control (normalized AUC)” value (SW-480 cells) is reported as “among the bottom 5% normalized AUCs; also recorded: increased toxicity” and the “increased drug efficacy … (normalized AUC)” value [6] is reported as “among the top 5% in increased drug efficacy”.
